Measurements published in patent US20080167246A1, “Ophthalmic and Contact Lens Solutions Containing Peptides as Preservative” (BioConcept Laboratories, priority 2003, published 2008).
Non-standard residues stand in square brackets, D forms with d. Residues, ends and D or L forms follow the SMILES beside them. No end group written: not given here.

Key:
Assay type in all cases: cell-based
[1] = tested on: Candida albicans (ATCC 10231); assay: Disinfection Efficacy antimicrobial assay (ISO 14729), C. albicans; conditions: Exp. 2, 1 hour exposure; for biocidal effect on C. albicans (in words): 100 ug/mL
Experimental: (§1) Peptides were tested using a conventional Disinfection Efficacy antimicrobial assay (ISO 14729), commonly used in evaluating biocidal efficacy of preservatives for use in contact lens care solutions. Briefly, a known concentration of organisms are inoculated into the test solution, and allowed to incubate for a given amount of time, after which they are neutralized to inactivate the preservative. Samples are serially diluted and plated in duplicate onto petri plates onto which growth medium is poured. The plates are incubated at 35° C. (bacteria) or 25° C. (yeast and molds) for 48 hours. The average number of colony forming units is determined on countable plates (the dilution at which between 30 to 300 cfu/plate are observed, except when colonies are observed only on the −1 dilution plates). The log reduction resulting from exposure to the test solution is calculated based on the growth of positive controls plated simultaneously. Recovery controls, to confirm that the test solution is neutralized, and viability controls are also plated.
Method: Candida albicans (ATCC 10231) stock cultures were incubated and prepared to result in cell suspensions containing between 10^7 and 10^8 cfu/mL. The Disinfection Efficacy test, as described above, was used, with the following modification: Since the standard Dey-Engley broth used to neutralize preservatives was not necessarily expected to neutralize the peptide, 0.1% sodium laurel sulfate (SLS) was added to the neutralization solution. Controls confirmed that this was effective in neutralizing the peptide test solution.
Method: The Disinfection Efficacy test was used with the following organisms: Staphylococcus aureus (ATCC 6538), Pseudomonas aeruginosa (ATCC 9027), Serratia marcesens (ATCC 13880), Candida albicans (ATCC 10231), and Fusarium solani (ATCC 36031). The peptides were diluted in water at a concentration of 100 ug/mL (adjusted for purity). Organism cultures were prepared to result in an inoculum concentration between 10^7 and 10^8 cfu/mL. […]

[2] = tested on: Pseudomonas aeruginosa (ATCC 9027); assay: Disinfection Efficacy antimicrobial assay (ISO 14729), P. aeruginosa; conditions: for biocidal effect on P. aeruginosa (in words): 100 ug/mL; for lowest concentration resulting in complete kill of P. aeruginosa: 1 hour, tested at 100, 33.3, 10, 3.33 and 1 ug/mL
Experimental: as §1
(§2) Method: The Disinfection Efficacy test was used with the following organisms: Staphylococcus aureus (ATCC 6538), Pseudomonas aeruginosa (ATCC 9027), Serratia marcesens (ATCC 13880), Candida albicans (ATCC 10231), and Fusarium solani (ATCC 36031). The peptides were diluted in water at a concentration of 100 ug/mL (adjusted for purity). Organism cultures were prepared to result in an inoculum concentration between 10^7 and 10^8 cfu/mL. The test solutions were inoculated for a 1 hour and a 3 hour exposure period, neutralized with DEB with 0.1% SLS added, and plated in duplicate.
(§3) Method: The Disinfection Efficacy test was used as in experiment 2 using Staphylococcus aureus and Pseudomonas aeruginosa. The peptides were diluted in water at concentrations of 100, 33.3, 10, 3.33, and 1 ug/mL. The test solutions were inoculated for 1 hour, neutralized, and plated in duplicate.

[3] = tested on: Serratia marcesens (ATCC 13880); assay: Disinfection Efficacy antimicrobial assay (ISO 14729), S. marcescens; conditions: Exp. 2, 1 hour exposure; for biocidal effect on S. marcescens (in words): 100 ug/mL
Experimental: as §1, §2

[4] = tested on: Staphylococcus aureus (ATCC 6538); assay: Disinfection Efficacy antimicrobial assay (ISO 14729), S. aureus; conditions: for biocidal effect on S. aureus (in words): 100 ug/mL
Experimental: as §1, §2, §3

[5] = tested on: Fusarium solani (ATCC 36031); assay: Disinfection Efficacy antimicrobial assay (ISO 14729), F. solani; conditions: Exp. 2, 1 hour exposure; for biocidal effect on F. solani (in words): 100 ug/mL
Experimental: as §1, §2

[6] = tested on: Staphylococcus aureus, Pseudomonas aeruginosa, Serratia marcesens, Candida albicans, Fusarium solani; assay: Disinfection Efficacy test, all 5 organisms of Experiment 2; conditions: Exp. 2; 100 ug/mL, one hour exposure
Experimental: as §1
Method: The Disinfection Efficacy test was used with the following organisms: Staphylococcus aureus (ATCC 6538), Pseudomonas aeruginosa (ATCC 9027), Serratia marcesens (ATCC 13880), Candida albicans (ATCC 10231), and Fusarium solani (ATCC 36031). The peptides were diluted in water at a concentration of 100 ug/mL (adjusted for purity). […]

[7] = Exp. 3, Conc. 3.33 μg/mL, T = 1 hr
[8] = Exp. 3, Conc. 33 μg/mL, T = 1 hr
[9] = Exp. 3, Conc. 100 μg/mL, T = 1 hr
[10] = Exp. 2, 100 ug/mL in water, 1 hour exposure

AKRHHGYKRKFH-NH2 (C-terminus assumed) [P-113]
biocidal effect on C. albicans (in words) [1]: effective | biocidal effect on P. aeruginosa (in words) ([2]; Exp. 2, 1 hour exposure): effective | lowest concentration resulting in complete kill of P. aeruginosa ([2]; Exp. 3): 3.33 µg/mL | average cfu/mL [2, 7]: 5.00E+00 cfu/mL | average cfu/mL [2, 8]: 0.00E+00 cfu/mL | average cfu/mL [2, 9]: 0.00E+00 cfu/mL | biocidal effect on S. marcescens (in words) [3]: no effect | biocidal effect on S. aureus (in words) ([4]; Exp. 2, 1 hour exposure): no effect | effectiveness against S. aureus (in words) ([4]; Exp. 3, 1 to 100 ug/mL, 1 hour): not effective | biocidal effect on F. solani (in words) [5]: effective

FAKKFAKKFKKFAKKFAKFAFAF [D2A21]
kill of all 5 organisms (in words) [6]: complete kill | average cfu/mL ([1]; 100 ug/mL in water): 0.00E+00 cfu/mL | average cfu/mL [2, 10]: 0.00E+00 cfu/mL | lowest concentration resulting in complete kill of P. aeruginosa ([2]; Exp. 3): 1 µg/mL | average cfu/mL ([2]; Exp. 3, Conc. 1 μg/mL, T = 1 hr): 0.00E+00 cfu/mL | average cfu/mL [2, 7]: 0.00E+00 cfu/mL | average cfu/mL ([2]; Exp. 3, Conc. 10 μg/mL, T = 1 hr): 0.00E+00 cfu/mL | average cfu/mL [2, 8]: 0.00E+00 cfu/mL | average cfu/mL [2, 9]: 0.00E+00 cfu/mL | average cfu/mL ([3]; 100 ug/mL in water): 0.00E+00 cfu/mL | average cfu/mL [4, 10]: 0.00E+00 cfu/mL | concentration achieving complete kill of S. aureus ([4]; Exp. 3, 1 hour, tested at 100, 33.3, 10, 3.33 and 1 ug/mL): 3.33 µg/mL | average cfu/mL [4, 7]: 0.00E+00 cfu/mL | average cfu/mL [4, 8]: 0.00E+00 cfu/mL | average cfu/mL [4, 9]: 0.00E+00 cfu/mL | average cfu/mL ([5]; 100 ug/mL in water): 0.00E+00 cfu/mL

C[C@@H](N)C(=O)N[C@H](CCCCN)C(=O)N[C@H](CCCNC(=N)N)C(=O)N[C@H](Cc1c[nH]cn1)C(=O)N[C@H](Cc1c[nH]cn1)C(=O)NCC(=O)N[C@H](Cc1ccc(O)cc1)C(=O)N[C@H](CCCCN)C(=O)N[C@H](CCCNC(=N)N)C(=O)N[C@H](CCCCN)C(=O)N[C@H](Cc1ccccc1)C(=O)N[C@H](Cc1c[nH]cn1)C(N)=O [P-113D] (H-[dA][dK][dR][dH][dH]G[dY][dK][dR][dK][dF][dH]-NH2; N-terminus and C-terminus assumed)
biocidal effect on C. albicans (in words) [1]: effective | biocidal effect on P. aeruginosa (in words) ([2]; Exp. 2, 1 hour exposure): effective | biocidal effect on S. marcescens (in words) [3]: no effect | biocidal effect on S. aureus (in words) ([4]; Exp. 2, 1 hour exposure): no effect | biocidal effect on F. solani (in words) [5]: effective
